Active and inactive are the calls of the source. The calls are words filed in the database; no cut-off is given here.
Assays:
NCI-H460 [1] = assay: Cytotoxicity against human NCI-H460 cells assessed as reduction in cell viability measured after 72 hrs by CCK8 assay; assay type: cell-based; details: NCI-H460, 72 h
A549 [2] = assay: Cytotoxicity against human A549 cells assessed as reduction in cell viability measured after 72 hrs by CCK8 assay; assay type: cell-based; details: A549, 72 h
HEK293 [3] = assay: Cytotoxicity against ABCG2-overexpressing human HEK293/482R cells assessed as reduction in cell viability measured after 72 hrs by CCK8 assay; assay type: ADME, cell-based; details: HEK293, 72 h
NCI-H460 [4] = assay: Chemo-sensitizing activity against mitoxantrone-selected ABCG2-overexpressing human NCI-H460/MX20 cells assessed as reversal fold at 1 uM measured after 72 hrs in presence of mitoxantrone by CCK8 assay relative to control; assay type: functional
NCI-H460 [5] = assay: Chemo-sensitizing activity against human NCI-H460 cells assessed as reversal fold at 1 uM measured after 72 hrs in presence of topotecan by CCK8 assay relative to control; assay type: functional
NCI-H460 [6] = assay: Chemo-sensitizing activity against mitoxantrone-selected ABCG2-overexpressing human NCI-H460/MX20 cells assessed as reversal fold at 1 uM measured after 72 hrs in presence of SN-38 by CCK8 assay relative to control; assay type: functional
NCI/ADR-RES [7] = assay: Chemo-sensitizing activity against ABCB1-overexpressing human NCI/ADR-RES cells assessed as reversal fold at 1 uM measured after 72 hrs in presence of paclitaxel by CCK8 assay relative to control; assay type: functional
NCI/ADR-RES [8] = assay: Chemo-sensitizing activity against ABCB1-overexpressing human NCI/ADR-RES cells assessed as reversal fold at 5 uM measured after 72 hrs in presence of paclitaxel by CCK8 assay relative to control; assay type: functional
A549 [9] = assay: Chemo-sensitizing activity against human A549 cells assessed as reversal fold at 1 uM measured after 72 hrs in presence of mitoxantrone by CCK8 assay relative to control; assay type: functional
A549 [10] = assay: Chemo-sensitizing activity against becatecarin-selected ABCG2-overexpressing human A549/Bec150 cells assessed as reversal fold at 1 uM measured after 72 hrs in presence of SN-38 by CCK8 assay relative to control; assay type: functional
A549 [11] = assay: Chemo-sensitizing activity against becatecarin-selected ABCG2-overexpressing human A549/Bec150 cells assessed as reversal fold at 2 uM measured after 72 hrs in presence of SN-38 by CCK8 assay relative to control; assay type: functional
HEK293 [12] = assay: Chemo-sensitizing activity against human HEK293 cells assessed as reversal fold at 1 uM measured after 72 hrs in presence of mitoxatrone by CCK8 assay relative to control; assay type: functional
HEK293 [13] = assay: Chemo-sensitizing activity against ABCG2-overexpressing human HEK293/482R cells assessed as reversal fold at 2 uM measured after 72 hrs in presence of mitoxatrone by CCK8 assay relative to control; assay type: functional
HEK293 [14] = assay: Chemo-sensitizing activity against human HEK293 cells assessed as reversal fold at 5 uM measured after 72 hrs in presence of SN-38 by CCK8 assay relative to control; assay type: functional
OVCAR-8 [15] = assay: Chemo-sensitizing activity against human OVCAR-8 cells assessed as reversal fold at 1 uM measured after 72 hrs in presence of vincristine by CCK8 assay relative to control; assay type: functional
OVCAR-8 [16] = assay: Chemo-sensitizing activity against human OVCAR-8 cells assessed as reversal fold at 2 uM measured after 72 hrs in presence of paclitaxel by CCK8 assay relative to control; assay type: functional
OVCAR-8 [17] = assay: Chemo-sensitizing activity against human OVCAR-8 cells assessed as reversal fold at 1 uM measured after 72 hrs in presence of colchicine by CCK8 assay relative to control; assay type: functional
KB 3-1 [18] = assay: Chemo-sensitizing activity against human KB 3-1 cells assessed as reversal fold at 1 uM measured after 72 hrs in presence of paclitaxel by CCK8 assay relative to control; assay type: functional
KB 3-1 [19] = assay: Chemo-sensitizing activity against human KB 3-1 cells assessed as reversal fold at 5 uM measured after 72 hrs in presence of paclitaxel by CCK8 assay relative to control; assay type: functional
KB-V1 [20] = assay: Chemo-sensitizing activity against ABCB1-overexpressing human KB-V1 cells assessed as reversal fold at 1 uM measured after 72 hrs in presence of paclitaxel by CCK8 assay relative to control; assay type: functional
KB 3-1 [21] = assay: Chemo-sensitizing activity against human KB 3-1 cells assessed as reversal fold at 1 uM measured after 72 hrs in presence of colchicine by CCK8 assay relative to control; assay type: functional
KB-V1 [22] = assay: Chemo-sensitizing activity against ABCB1-oveexpressing human KB-V1 cells assessed as reversal fold at 1 uM measured after 72 hrs in presence of colchicine by CCK8 assay relative to control; assay type: functional
HEK293 [23] = assay: Chemo-sensitizing activity against human HEK293 cells assessed as reversal fold at 1 uM measured after 72 hrs in presence of paclitaxel by CCK8 assay relative to control; assay type: functional
HEK293 [24] = assay: Chemo-sensitizing activity against ABCB1-overexpressing human HEK293/MDR19 cells assessed as reversal fold at 2 uM measured after 72 hrs in presence of paclitaxel by CCK8 assay relative to control; assay type: functional
HEK293 [25] = assay: Chemo-sensitizing activity against human HEK293 cells assessed as reversal fold at 2 uM measured after 72 hrs in presence of colchicine by CCK8 assay relative to control; assay type: functional
ABCG2 = target: T1, ABCG2 (Homo sapiens, UniProt Q9UNQ0); assay: Inhibition of ABCG2 in becatecarin-selected ABCG2-overexpressing human A549/Bec150 cells assessed as increase in intracellular mitoxantrone accumulation at 20 uM incubated for 1 hr in presence of mitoxantrone by flow cytometry; assay type: cell-based; details: probe mitoxantrone
T1 sequence (Q9UNQ0 whole entry): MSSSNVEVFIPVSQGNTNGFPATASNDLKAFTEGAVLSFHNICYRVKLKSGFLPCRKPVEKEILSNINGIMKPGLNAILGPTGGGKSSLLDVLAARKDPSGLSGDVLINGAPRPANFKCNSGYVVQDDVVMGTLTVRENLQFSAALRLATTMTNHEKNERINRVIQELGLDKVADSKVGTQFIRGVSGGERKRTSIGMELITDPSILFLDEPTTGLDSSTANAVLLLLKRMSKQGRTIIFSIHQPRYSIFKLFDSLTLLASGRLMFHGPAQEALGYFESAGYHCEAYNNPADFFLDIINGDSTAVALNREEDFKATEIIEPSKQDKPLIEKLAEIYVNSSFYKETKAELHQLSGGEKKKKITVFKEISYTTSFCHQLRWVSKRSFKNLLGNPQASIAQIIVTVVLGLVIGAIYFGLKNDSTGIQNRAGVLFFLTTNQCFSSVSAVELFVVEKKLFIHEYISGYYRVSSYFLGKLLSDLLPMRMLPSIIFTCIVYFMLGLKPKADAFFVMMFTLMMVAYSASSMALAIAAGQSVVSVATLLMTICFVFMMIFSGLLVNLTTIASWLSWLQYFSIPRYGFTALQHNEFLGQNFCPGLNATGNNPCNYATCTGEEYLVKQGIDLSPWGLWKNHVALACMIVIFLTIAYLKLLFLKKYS

A549 [26] = assay: Effect on ABCG2 protein expression in becatecarin-selected ABCG2-overexpressing human A549/Bec150 cells at 1 to 5 uM incubated for 72 hrs by immunoblot analysis; assay type: functional, cell-based; details: dose 1-5 µM

With `C=C(C)[C@H](CC=C(C)C)Cc1c(O)cc(O)c2c1O[C@H](c1ccc(O)cc1O)CC2=O` [SOPHORAFLAVANONE G] the IC50 (NCI-H460 [1]) was 29.3 µM, the IC50 (A549 [2]) was 26.2 µM and the IC50 (HEK293 [3]) was 49.7 µM. The “fold change (FC)” value (NCI-H460 [4]) was 1.9, the “fold change (FC)” value (NCI-H460 [5]) was 1.6 and the “fold change (FC)” value (NCI-H460 [6]) was 2.6. For the same molecule, the “fold change (FC)” value (NCI/ADR-RES [7]) was 1, the “fold change (FC)” value (NCI/ADR-RES [8]) was 1.4 and the “fold change (FC)” value (A549 [9]) was 1.2. For the same molecule, the “fold change (FC)” value (A549 [10]) was 1.7, the “fold change (FC)” value (A549 [11]) was 2.7 and the “fold change (FC)” value (HEK293 [12]) was 1. The “fold change (FC)” value (HEK293 [13]) was 3.2, the “fold change (FC)” value (HEK293 [14]) was 1 and the “fold change (FC)” value (OVCAR-8 [15]) was 1. The “fold change (FC)” value (OVCAR-8 [16]) was 1, the “fold change (FC)” value (OVCAR-8 [17]) was 1 and the “fold change (FC)” value (KB 3-1 [18]) was 0.9. The “fold change (FC)” value (KB 3-1 [19]) was 1.1, the “fold change (FC)” value (KB-V1 [20]) was 0.9 and the “fold change (FC)” value (KB 3-1 [21]) was 1. For the same molecule, the “fold change (FC)” value (KB-V1 [22]) was 0.9, the “fold change (FC)” value (HEK293 [23]) was 1.1 and the “fold change (FC)” value (HEK293 [24]) was 1.2. The “fold change (FC)” value (HEK293 [25]) was 0.9, the inhibition at 1 h, 20 µM (ABCG2) was 100% and the Activity (A549 [26]) was “inactive”.
